“And” between values parts separate entries of the source, which are not always exact repeats. Equal values may be shown once.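 Grown in 96-well plates, cells were treated for 48 hours with each compound at five concentrations. Insufficient inhibition: endpoint recorded as highest concentration tested. The concentration for full growth arrest is given as TGI.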
Tests used:
Assay in all cases: DTP human tumour cell line panel, 48 h
[1] = tested on: SK-MEL-28 melanoma
[2] = tested on: IGROV1 ovarian
[3] = tested on: SF-295 CNS
[4] = tested on: MDA-MB-231 breast
[5] = tested on: CCRF-CEM leukemia
[6] = tested on: MCF7 breast
[7] = tested on: COLO 205 colon
[8] = tested on: OVCAR-4 ovarian
[9] = tested on: RXF 393 renal
[10] = tested on: UO-31 renal

COc1cc([C@@H]2c3cc4c(cc3[C@@H](c3c(O)cc(O)c5c3O[C@H](c3ccc(O)c(O)c3)[C@H](OC(=O)c3cc(O)c(O)c(O)c3)C5)[C@H]3COC(=O)[C@H]23)OCO4)cc(OC)c1O
TGI [1]: > 100 µM | TGI [2]: > 100 µM | TGI [3]: > 100 µM | TGI [4]: > 100 µM | TGI [5]: 59 µM | TGI [6]: > 100 µM | TGI [7]: 84.1 µM | TGI [8]: > 100 µM | TGI [9]: > 100 µM

COc1cc2c(c(OC)c1OC)-c1ccc(SC)c(=O)cc1[C@@H](NCc1cccc([N+](=O)[O-])c1)CC2
TGI [2]: > 100 µM | TGI [3]: > 100 µM | TGI [5]: > 100 µM | TGI [10]: > 100 µM | TGI [7]: < 0.01 µM | TGI [8]: > 100 µM

O=NN1C(c2ccccc2)CCCC1c1ccccc1 (stereo not given)
TGI [1]: > 100 µM | TGI [2]: > 100 µM | TGI [3]: > 100 µM | TGI [5]: > 100 µM | TGI [6]: > 100 µM | TGI [10]: > 100 µM | TGI [7]: > 100 µM | TGI [8]: > 100 µM | TGI [9]: > 100 µM

O=C1CC(C(COCc2ccccc2)OCc2ccccc2)CC(=O)N1 (stereo not given)
TGI [1]: > 100 µM | TGI [2]: > 100 µM | TGI [3]: > 100 µM | TGI [4]: > 100 µM | TGI [5]: > 100 µM | TGI [6]: > 100 µM | TGI [10]: > 100 µM

O=C(/C=C/c1ccccc1)Oc1cccc(Br)c1
TGI [1]: > 100 µM | TGI [2]: > 100 µM | TGI [3]: 68.3 µM | TGI [4]: > 100 µM | TGI [6]: 47.4 µM | TGI [10]: > 100 µM | TGI [7]: > 100 µM | TGI [8]: > 100 µM | TGI [9]: > 100 µM

CC1=NN(C(=O)Cc2ccccc2)C(=O)/C1=C\c1ccccc1O
TGI [1]: > 100 µM | TGI [2]: > 100 µM | TGI [3]: > 100 µM | TGI [5]: > 100 µM | TGI [10]: > 100 µM | TGI [7]: > 100 µM | TGI [8]: > 100 µM | TGI [9]: > 100 µM

COc1cc2c(c(OC)c1OC)-c1ccc(SC)c(=O)cc1[C@@H](NC(=O)c1ccc([N+](=O)[O-])cc1)CC2
TGI [1]: > 100 µM | TGI [2]: 25 µM and > 100 µM | TGI [3]: 0.00721 µM | TGI [5]: 25 µM | TGI [10]: 25 µM and 59.4 µM | TGI [7]: 25 µM | TGI [8]: 25 µM and > 100 µM

Cc1c2cccc-2c(OCCOC(=O)n2ccnc2)cc2c1[nH]c1ccccc12
TGI [1]: 4.63 µM | TGI [2]: 6.23 µM | TGI [3]: 10.9 µM | TGI [6]: 19.5 µM | TGI [10]: 3.39 µM | TGI [8]: 5.63 µM

C[C@]12CC[C@H](O)CC1=CC[C@@H]1[C@@H]2CC[C@]2(C)C(=O)/C(=C/c3ccc([N+](=O)[O-])cc3)C[C@@H]12
TGI [1]: 74.7 µM | TGI [2]: 21.8 µM | TGI [3]: 20.6 µM | TGI [5]: > 100 µM | TGI [6]: > 100 µM | TGI [10]: 28 µM | TGI [8]: 32.3 µM | TGI [9]: 25 µM

O=C1CCCCN1C(=O)c1ccc([N+](=O)[O-])cc1
TGI [1]: > 100 µM | TGI [2]: > 100 µM | TGI [3]: > 100 µM | TGI [4]: > 100 µM | TGI [5]: > 100 µM | TGI [6]: > 100 µM | TGI [10]: > 100 µM | TGI [8]: > 100 µM | TGI [9]: > 100 µM

COc1cc(S(=O)(=O)Nc2ccc(-c3csc(N4C(=O)C(C)SC4c4ccccc4)n3)cc2)ccc1Cl (stereo not given)
TGI [1]: > 100 µM | TGI [2]: > 100 µM | TGI [5]: > 100 µM | TGI [6]: 43.2 µM | TGI [10]: > 100 µM | TGI [7]: > 100 µM | TGI [8]: > 100 µM | TGI [9]: 47.4 µM

O=C(c1ccccc1O)c1cc(-c2ncc3c(=O)c4ccccc4oc3n2)c(-c2ccccc2O)[nH]c1=O
TGI [1]: 65.3 µM | TGI [2]: > 70.1 µM | TGI [3]: 22.7 µM | TGI [5]: 69.3 µM | TGI [6]: 34.2 µM | TGI [10]: > 79.7 µM | TGI [7]: > 100 µM | TGI [8]: 83.5 µM | TGI [9]: 93.4 µM
